Test results taken from ChEMBL document CHEMBL6134895, “Strategic Design and Optimization of Umifenovir Analogues: Balancing Antiviral Efficacy and hERG Toxicity against SARS-CoV-2” (J Med Chem, 2025).
pIC50: −log10 of the molar value. Activity calls are given as the source filed them. The calls are words filed in the database; no cut-off is given here.

Tests used:
[1] = Stability in human plasma assessed as half life at 2 uM measured up to 120 mins by LC-MS/MS analysis; assay type: ADME, cell-free
[2] = Stability in mouse plasma assessed as half life at 2 uM measured up to 120 mins by LC-MS/MS analysis; assay type: ADME, cell-free
[3] = Stability in human plasma assessed as compound remaining at 2 uM measured after 60 mins by LC-MS/MS analysis; assay type: ADME, cell-free; details: read-out: Stability
[4] = Stability in mouse plasma assessed as compound remaining at 2 uM measured after 60 mins by LC-MS/MS analysis; assay type: ADME, cell-free; details: read-out: Stability
[5] = test system: SARS-CoV-2; experiment: Antiviral activity against SARS CoV-2 Wuhan infected in African green monkey Vero E6 cells assessed as inhibition of viral replication pretreated for 15 mins followed by compound removal and induction of viral infection for 1 hr and subsequent removal of inoculum and further addition of media containing compound measured after 24 hrs by cell-based ELISA; assay type: functional, organism-based; details: for pIC50: Severe acute respiratory syndrome coronavirus 2, Wuhan, Vero C1008; for inhibition: Severe acute respiratory syndrome coronavirus 2, time 24.25 hrs
[6] = test system: Vero C1008; experiment: (§1) Cytotoxicity against African green monkey Vero E6 cells assessed as cell viability at 5 uM incubated for 48 hrs by MTT assay; assay type: toxicity, cell-based; details: chlorocebus sabaeus, vero c1008, 48 h, 5 µM
[7] = test system: SARS-CoV-2; experiment: Antiviral activity against SARS CoV-2 Wuhan infected in African green monkey Vero E6 cells assessed as virus inactivation at 5 uM pretreated for 15 mins followed by compound removal and induction of viral infection for 1 hr and subsequent removal of inoculum and further addition of media containing compound measured after 48 hrs by RT-qPCR analysis relative to control; assay type: functional, Severe acute respiratory syndrome coronavirus 2; details: time 48.25 hrs
[8] = biological target: Voltage-gated inwardly rectifying potassium channel KCNH2 (Homo sapiens, UniProt Q12809); experiment: Inhibition of hERG extracted from membrane (unknown origin) incubated for 4 hrs by fluorescence polarization assay; assay type: toxicity, cell membranes
[9] = Lipophilicity, LogD of compound in sodium phosphate buffer/n-octanol incubated for 3 hrs by LC-UV analysis; assay type: physicochemical
[10] = Stability in human plasma assessed as compound remaining at 2 uM measured after 2 hrs by LC-MS/MS analysis; assay type: ADME, cell-free; details: read-out: Stability
[11] = Stability in mouse plasma assessed as compound remaining at 2 uM measured after 2 hrs by LC-MS/MS analysis; assay type: ADME, cell-free; details: read-out: Stability
[12] = Microsomal stability in human liver microsomes assessed as half life at 100 uM preincubated for 15 mins followed by NADPH addition measured up to 60 mins by LC-MS/MS analysis; assay type: ADME, Microsome; details: time < 75 min
[13] = Microsomal stability in mouse liver microsomes assessed as half life at 100 uM preincubated for 15 mins followed by NADPH addition measured up to 60 mins by LC-MS/MS analysis; assay type: ADME, Microsome; details: time < 75 min
[14] = Microsomal stability in human liver microsomes assessed as compound remaining at 100 uM preincubated for 15 mins followed by NADPH addition measured after 60 mins by LC-MS/MS analysis; assay type: ADME, Microsome; details: time 75 min, read-out: Stability
[15] = Microsomal stability in mouse liver microsomes assessed as compound remaining at 100 uM preincubated for 15 mins followed by NADPH addition measured after 60 mins by LC-MS/MS analysis; assay type: ADME, Microsome; details: time 75 min, read-out: Stability
[16] = Microsomal stability in human liver microsomes assessed as intrinsic clearance measured per mg protein at 100 uM preincubated for 15 mins followed by NADPH addition measured up to 60 mins by LC-MS/MS analysis; assay type: ADME, Microsome; details: time < 75 min, read-out: CLH
[17] = Microsomal stability in mouse liver microsomes assessed as intrinsic clearance measured per mg protein at 100 uM preincubated for 15 mins followed by NADPH addition measured up to 60 mins by LC-MS/MS analysis; assay type: ADME, Microsome; details: time < 75 min, read-out: CLH
[18] = test system: SARS-CoV-2; experiment: Potency index, ratio of Arbidol IC50 to test compound IC50 for antiviral activity against SARS CoV-2 Wuhan infected in African green monkey Vero E6 cells assessed as inhibition of viral replication pretreated for 15 mins followed by compound removal and induction of viral infection for 1 hr and subsequent removal of inoculum and further addition of media containing compound measured after 24 hrs …; assay type: functional, Severe acute respiratory syndrome coronavirus 2; details: time 24.25 hrs
[19] = test system: SARS-CoV-2; experiment: Antiviral activity against SARS CoV-2 Wuhan infected in African green monkey Vero E6 cells assessed as virus inactivation at 1 uM pretreated for 15 mins followed by compound removal and induction of viral infection for 1 hr and subsequent removal of inoculum and further addition of media containing compound measured after 48 hrs by RT-qPCR analysis relative to control; assay type: functional, Severe acute respiratory syndrome coronavirus 2
[20] = test system: SARS-CoV-2; experiment: Antiviral activity against SARS CoV-2 Wuhan infected in African green monkey Vero E6 cells assessed as inhibition of viral replication pretreated for 15 mins followed by compound removal and induction of viral infection for 1 hr and subsequent removal of inoculum and further addition of media containing compound measured after 48 hrs by RT-qPCR analysis; assay type: functional, organism-based; details: Severe acute respiratory syndrome coronavirus 2, time 48.25 hrs
[21] = as §1; assay type: toxicity, cell-based, Vero C1008; details: chlorocebus sabaeus, Vero E6 cells, read-out: Activity
[22] = Severe acute respiratory syndrome coronavirus 2, time 48.25 hrs

Chain of Voltage-gated inwardly rectifying potassium channel KCNH2 (Q12809 whole entry): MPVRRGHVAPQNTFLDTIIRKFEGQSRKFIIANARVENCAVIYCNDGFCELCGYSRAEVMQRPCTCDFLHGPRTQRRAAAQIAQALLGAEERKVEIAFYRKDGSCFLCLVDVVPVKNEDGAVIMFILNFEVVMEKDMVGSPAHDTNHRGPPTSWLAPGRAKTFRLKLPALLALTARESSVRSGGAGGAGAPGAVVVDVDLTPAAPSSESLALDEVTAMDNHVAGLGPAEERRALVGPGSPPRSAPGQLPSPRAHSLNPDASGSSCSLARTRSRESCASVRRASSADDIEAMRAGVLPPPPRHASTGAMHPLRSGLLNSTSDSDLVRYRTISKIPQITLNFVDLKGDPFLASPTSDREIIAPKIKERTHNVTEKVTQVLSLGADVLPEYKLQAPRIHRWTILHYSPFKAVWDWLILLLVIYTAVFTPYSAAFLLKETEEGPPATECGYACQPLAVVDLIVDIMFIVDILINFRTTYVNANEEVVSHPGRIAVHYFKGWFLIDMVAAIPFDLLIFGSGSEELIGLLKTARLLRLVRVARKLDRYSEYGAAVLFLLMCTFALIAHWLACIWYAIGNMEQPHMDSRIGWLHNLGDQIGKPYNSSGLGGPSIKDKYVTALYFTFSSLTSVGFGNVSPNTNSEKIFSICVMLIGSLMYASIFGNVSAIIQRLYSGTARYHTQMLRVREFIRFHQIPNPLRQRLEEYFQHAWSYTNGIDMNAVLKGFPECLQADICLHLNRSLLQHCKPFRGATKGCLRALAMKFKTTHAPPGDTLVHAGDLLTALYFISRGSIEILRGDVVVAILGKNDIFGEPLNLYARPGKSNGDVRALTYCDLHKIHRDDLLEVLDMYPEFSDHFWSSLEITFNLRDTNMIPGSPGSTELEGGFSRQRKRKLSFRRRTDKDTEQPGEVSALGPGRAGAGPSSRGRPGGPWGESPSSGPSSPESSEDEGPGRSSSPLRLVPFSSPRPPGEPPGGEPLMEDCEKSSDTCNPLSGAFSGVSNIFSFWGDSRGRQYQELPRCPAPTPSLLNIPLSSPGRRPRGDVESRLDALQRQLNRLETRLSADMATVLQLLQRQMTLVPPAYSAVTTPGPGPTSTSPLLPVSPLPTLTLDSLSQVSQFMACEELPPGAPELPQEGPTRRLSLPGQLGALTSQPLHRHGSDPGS

Row | SMILES | half-life at 2 µM [1] [min] | half-life at 2 µM [2] [min] | remaining at 1 h, 2 µM [3] [%] | remaining at 1 h, 2 µM [4] [%] | pIC50 [5] | Activity [6] | Activity [7] [%] | pIC50 [8] | logD at 3 h [9] | half-life at 100 µM [12] [min] | half-life at 100 µM [13] [min] | remaining at 1 h, 100 µM [14] [%] | remaining at 1 h, 100 µM [15] [%] | microsomal CLint at 100 µM [16] [µL/min/mg] | microsomal CLint at 100 µM [17] [µL/min/mg] | Activity [19, 22] | also measured
1 | CC(C)[N+](C)(CCOC(=O)C1c2ccccc2Oc2ccccc21)C(C)C [PROPANTHELINE] | 21.3 | 52.1 | 2.04 | 17.4 |  |  |  |  |  |  |  |  |  |  |  |  | 
2 | CCOC(=O)c1c(CSc2ccc(C)cc2C)n(Cc2cccc3ccccc23)c2cc(Br)c(O)cc12 | > 240 | 180 |  |  | 6.62 | Non-toxic | <90 | < 4.52 | 3.76 | > 120 | > 120 | 96.7 | 75.5 | 20.2 | > 14.4 |  | remaining at 2 h, 2 µM [10]: 69.1%; remaining at 2 h, 2 µM [11]: 70.3%
3 | Cc1ccc(Cn2c(CSc3c(C)cc(C)cc3C)c(C(=O)NC3CCN(C(C)C)CC3)c3cc(O)c(Br)cc32)cc1 | > 240 | > 240 | 57.6 | 74.8 | 6.12 | Non-toxic |  | 4.98 | 3.95 | 89.8 | 120 | 59.4 | 80.1 | 15.5 | 9.64 |  | Ratio IC50 [18]: ~13
4 | CCOC(=O)c1c(CSc2ccc(C)cc2C)n(C)c2cc(Br)c(O)c(CN(C)C)c12 |  |  |  |  | 5.82 | Non-toxic | >99 | 6.19 |  |  |  |  |  |  |  |  | Activity ([19]; time 48.25 hrs): >99%
5 | Cc1ccc(Cn2c(CSc3c(C)cc(C)cc3C)c(C(=O)NC(C)(C)C)c3cc(O)c(Br)cc32)cc1 | > 120 | > 120 | 116 | 96.9 | 6.25 | Non-toxic |  | < 4.52 | 3.54 | 9.7 | 5.73 | 1.1 | 0.73 | 242 | 143 |  | Ratio IC50 [18]: ~13
6 | CCOC(=O)c1c(CSc2ccc(F)cc2C)n(Cc2ccc(C)cc2)c2cc(Br)c(O)cc12 |  |  |  |  | 5.00 | Non-toxic | >50 |  |  |  |  |  |  |  |  | Not active; No Significant Effect Observed | 
7 | CCOC(=O)c1c(CSc2ccc(F)cc2)n(Cc2cccc3ccccc23)c2cc(Br)c(O)cc12 |  |  |  |  |  | Non-toxic | >90 |  |  |  |  |  |  |  |  | Not active; No Significant Effect Observed | inhibition [5]: inactive
8 | CN(C)CCCCNC(=O)c1c(CSc2ccc(F)cc2)n(C)c2cc(Br)c(O)cc12 | < 120 | 60 | 70.6 | 41.6 | 5.74 | Non-toxic |  | 5.01 | 1.91 | 31.2 | 26.9 | 28 | 21 | 22.2 | 25.8 |  | 
9 | Cc1ccc(Cn2c(CSc3c(C)cc(C)cc3C)c(C(=O)NC3CCN(Cc4ccccc4)CC3)c3cc(O)c(Br)cc32)cc1 |  |  |  |  | 5.82 | Non-toxic |  |  |  |  |  |  |  |  |  |  | Ratio IC50 [18]: ~13
10 | CCOC(=O)c1c(CSc2ccc(F)cc2C)n(Cc2ccc(F)cc2)c2cc(Br)c(O)cc12 |  |  |  |  | 4.90 | Non-toxic | >95 |  |  |  |  |  |  |  |  | Not active; No Significant Effect Observed | inhibition [20]: Not active; No Significant Effect
11 | CCOC(=O)c1c(CSc2c(C)cc(C)cc2C)n(Cc2ccc(C)cc2)c2cc(Br)c(O)cc12 | > 120 | > 120 | 87.8 | 111 | 5.82 | Non-toxic | >99 | < 4.52 | 3.03 | 17.3 | 7.17 | 8.56 | 1.23 | 193 | 80.2 |  | 
12 | CCOC(=O)c1c(CSc2ccc(F)cc2C)n(C)c2cc(Br)c(O)cc12 |  |  |  |  |  |  | 75 |  |  |  |  |  |  |  |  | Not active; No Significant Effect Observed | inhibition [5]: inactive; viability at 48 h, 5 µM [21]: 70%
13 | CCOC(=O)c1c(CSc2ccc(C)cc2C)n(Cc2ccc(C)cc2)c2cc(Br)c(O)c(CN(C)C)c12 | > 120 | > 120 |  |  | 5.82 | Non-toxic | <99.9 | 5.22 | 3.98 | 2.71 | 5.08 | 0.31 | 0.314 | 512 | 273 |  | Activity ([19]; time 48.25 hrs): <99.9%; remaining at 2 h, 2 µM [10]: 115%; remaining at 2 h, 2 µM [11]: 88.4%
